Measurements reported in PMC6317078 (Science (New York, N.Y.), 2018).

Biological target: T1, zfDHHC15 (Danio rerio, UniProt F1QXD3, C153S)
T1 sequence (F1QXD3 1-332 C153S): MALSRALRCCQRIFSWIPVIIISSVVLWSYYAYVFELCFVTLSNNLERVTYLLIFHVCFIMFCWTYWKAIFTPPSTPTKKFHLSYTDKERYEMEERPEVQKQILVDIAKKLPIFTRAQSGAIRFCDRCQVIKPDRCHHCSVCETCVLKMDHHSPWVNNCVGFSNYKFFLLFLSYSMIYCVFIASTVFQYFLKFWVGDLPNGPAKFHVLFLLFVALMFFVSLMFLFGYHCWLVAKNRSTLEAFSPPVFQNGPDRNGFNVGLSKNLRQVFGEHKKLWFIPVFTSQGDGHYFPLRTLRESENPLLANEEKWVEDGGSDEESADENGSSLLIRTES
Experiment: X-ray crystal structure
Settings: 2.54 Å; acyl-binding cavity; ligand modelled into density, not added

CCCCCCCCCCCCCCCC(=O)O [palmitic acid]
X-ray crystal structure: continuous density in this cavity, which we modeled as a palmitic acid
